# Read-outs that look alike come from different tables or passages of the source. Marks after values point to notes of the source that are not given here.
# Experiments:
# OCT2 protein [1] = assay: OCT2 protein expression in Caco-2 cells; type: cell-based, human; settings: 48 h; for Expressions of OCT2 protein, 5 bile salts tested: CDCA 100, CA 100, DCA 50, HDCA 100, GCA 100 μmol/L; for Expressions of OCT2 protein by FXR agonists: CDCA 100, bilirubin 50, GW4064 1 μmol/L
# OCT2 protein [2] = assay: OCT2 protein expression in HK-2 cells; type: cell-based, human; settings: 48 h; for Expressions of OCT2 protein by FXR agonists: CDCA 100, bilirubin 50, GW4064 1 μmol/L
# OCT1 protein [3] = assay: OCT1 protein expression in HepG2 cells; type: cell-based, human; settings: for Concentration-dependent effect on expressions of OCT1 protein: 48 h, CDCA 25, 50, 100 μmol/L, bilirubin 1, 10, 50 μmol/L
# Oct1 protein [4] = assay: Oct1 protein expression in primarily cultured rat hepatocytes; type: cell-based; settings: for Expressions of Oct1 protein: CDCA, bilirubin or GW4064
# Oct2 protein [5] = assay: Oct2 protein expression in primarily cultured rat hepatocytes; type: cell-based; settings: for Expressions of Oct2 protein: CDCA, bilirubin or GW4064
# Mate1 = assay: Renal Mate1 protein expression in treated rats; type: in vivo, rat; settings: 14 days: CDCA 180 mg/kg qd oral
# FXR [6] = molecular target: T1, FXR (Homo sapiens, UniProt Q96RI1); type: cell-based; settings: HK-2 cells
# T1 sequence (Q96RI1 1-486): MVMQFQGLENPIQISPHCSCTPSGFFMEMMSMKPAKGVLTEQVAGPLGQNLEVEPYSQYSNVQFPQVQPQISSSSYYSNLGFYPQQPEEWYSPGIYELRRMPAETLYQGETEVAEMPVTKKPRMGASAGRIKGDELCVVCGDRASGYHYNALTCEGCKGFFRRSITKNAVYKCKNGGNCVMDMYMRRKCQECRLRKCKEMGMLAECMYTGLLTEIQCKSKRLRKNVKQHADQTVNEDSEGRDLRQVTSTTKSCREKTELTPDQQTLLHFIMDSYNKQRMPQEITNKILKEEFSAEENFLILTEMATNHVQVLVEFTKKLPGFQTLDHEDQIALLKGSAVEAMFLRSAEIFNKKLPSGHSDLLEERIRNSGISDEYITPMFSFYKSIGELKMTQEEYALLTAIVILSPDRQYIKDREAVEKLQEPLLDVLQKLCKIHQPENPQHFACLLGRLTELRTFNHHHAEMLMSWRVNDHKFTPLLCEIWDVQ
# FXR protein = FXR protein expression in HK-2 cells; type: cell-based, human
# Oct2/3 [7] = settings: Sham rats
# Oct2/3 [8] = molecular target: T2, Oct2/3 (Rattus norvegicus, UniProt Q9R0W2); settings: corticosterone 5 mg/kg ip, normal rats; iv metformin 10 mg/kg
# T2 sequence (Q9R0W2 1-555): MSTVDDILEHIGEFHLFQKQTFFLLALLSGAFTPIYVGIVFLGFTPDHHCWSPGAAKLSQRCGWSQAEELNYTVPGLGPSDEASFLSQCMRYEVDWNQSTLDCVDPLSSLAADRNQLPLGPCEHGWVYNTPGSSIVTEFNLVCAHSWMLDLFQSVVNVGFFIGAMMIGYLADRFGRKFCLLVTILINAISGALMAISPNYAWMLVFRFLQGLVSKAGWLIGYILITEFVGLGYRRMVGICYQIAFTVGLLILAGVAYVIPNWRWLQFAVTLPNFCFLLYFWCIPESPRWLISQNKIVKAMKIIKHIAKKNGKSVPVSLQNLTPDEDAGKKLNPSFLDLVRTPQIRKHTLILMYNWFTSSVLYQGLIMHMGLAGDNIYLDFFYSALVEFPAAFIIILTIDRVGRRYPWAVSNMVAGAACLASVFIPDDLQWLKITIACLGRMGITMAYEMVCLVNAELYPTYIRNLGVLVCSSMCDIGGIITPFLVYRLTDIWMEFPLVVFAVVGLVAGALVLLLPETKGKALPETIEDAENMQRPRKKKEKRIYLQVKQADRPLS
# Oct1 = Oct1 (Rattus norvegicus, UniProt Q63089); assay: in vitro; settings: probe metformin (100 μmol/L)
# Oct1, sequence (Q63089 whole entry): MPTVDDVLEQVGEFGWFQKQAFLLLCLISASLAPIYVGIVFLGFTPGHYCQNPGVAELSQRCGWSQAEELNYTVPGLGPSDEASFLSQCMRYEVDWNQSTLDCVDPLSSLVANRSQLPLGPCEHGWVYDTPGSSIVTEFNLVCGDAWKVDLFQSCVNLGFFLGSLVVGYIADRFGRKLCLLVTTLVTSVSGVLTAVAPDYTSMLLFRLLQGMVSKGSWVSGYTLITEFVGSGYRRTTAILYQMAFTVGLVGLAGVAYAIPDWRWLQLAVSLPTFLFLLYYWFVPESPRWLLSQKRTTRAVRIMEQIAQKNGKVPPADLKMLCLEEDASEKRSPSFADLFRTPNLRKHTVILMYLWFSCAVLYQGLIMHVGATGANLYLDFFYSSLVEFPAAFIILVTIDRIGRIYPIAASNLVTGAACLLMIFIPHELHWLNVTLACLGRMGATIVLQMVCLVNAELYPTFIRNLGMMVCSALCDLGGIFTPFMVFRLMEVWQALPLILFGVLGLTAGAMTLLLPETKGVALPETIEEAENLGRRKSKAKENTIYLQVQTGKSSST
# Oct3 = molecular target: T3, Oct3 (Rattus norvegicus, UniProt O88446); settings: estradiol 1 μmol/L with metformin 50 μg/mL; Sham rats
# T3 sequence (O88446 1-551): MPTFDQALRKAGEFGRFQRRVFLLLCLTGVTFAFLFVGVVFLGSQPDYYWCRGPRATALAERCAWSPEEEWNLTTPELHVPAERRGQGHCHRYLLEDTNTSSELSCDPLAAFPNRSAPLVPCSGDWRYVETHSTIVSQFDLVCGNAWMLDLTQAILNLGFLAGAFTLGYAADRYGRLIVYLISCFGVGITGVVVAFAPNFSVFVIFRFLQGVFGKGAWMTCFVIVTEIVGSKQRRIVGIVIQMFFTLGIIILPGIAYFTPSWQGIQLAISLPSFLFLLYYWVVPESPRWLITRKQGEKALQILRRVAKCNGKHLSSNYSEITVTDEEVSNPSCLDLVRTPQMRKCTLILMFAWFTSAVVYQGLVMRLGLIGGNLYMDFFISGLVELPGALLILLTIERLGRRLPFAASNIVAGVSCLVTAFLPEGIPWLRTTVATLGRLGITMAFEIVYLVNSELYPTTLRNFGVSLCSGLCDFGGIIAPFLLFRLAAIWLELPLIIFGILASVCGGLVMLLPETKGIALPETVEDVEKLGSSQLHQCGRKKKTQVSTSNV
# rat kidney slices = assay: Uptake of metformin by precision-cut kidney slices; type: in vitro ADME; settings: metformin 50 μg/mL, 15 min, 37 °C; slices from BDL rats
# [9] = oral metformin 40 mg/kg
# FXR [10] = molecular target: T1, FXR; type: cell-based; settings: HepG2 cell
# Oct2 = type: in vivo, rat; settings: stigmasterol 200 mg/kg qd plus CDCA 180 mg/kg qd oral, 14 days
# [11] = type: in vivo, rat; settings: stigmasterol 200 mg/kg qd plus CDCA 180 mg/kg qd oral, 14 days
# [12] = thiamine 20 μg/mL perfusion
# [13] = endogenous thiamine; BDL rats
# [14] = CON rats of CDCA study (Table S5)
smiles,measurement,setting,value
"C[C@H](CCC(=O)O)[C@H]1CC[C@H]2[C@@H]3[C@H](O)C[C@@H]4C[C@H](O)CC[C@]4(C)[C@H]3C[C@H](O)[C@]12C [CA, Cholic acid]","Expressions of OCT2 protein, 5 bile salts tested",OCT2 protein [1],only CDCA remarkably induces
"C[C@H](CCC(=O)O)[C@H]1CC[C@H]2[C@@H]3[C@H](O)C[C@@H]4C[C@H](O)CC[C@]4(C)[C@H]3CC[C@]12C [CDCA, chenodeoxycholic acid]",Concentration-dependent effect on expressions of OCT2,"OCT2 protein [1]; CDCA 25, 50, 100 μmol/L, bilirubin 10, 25, 50 μmol/L",concentration-dependently increase
same,"Expressions of OCT2 protein, 5 bile salts tested",OCT2 protein [1],remarkably induces
same,Expressions of OCT2 protein by FXR agonists,OCT2 protein [1],induce expressions of OCT2 protein
same,Expressions of OCT2 protein by FXR agonists,OCT2 protein [2],increase expressions of OCT2 protein
same,Concentration-dependent effect on expressions of OCT1 protein,OCT1 protein [3],concentration-dependently downregulate
same,Expressions of Oct1 protein,Oct1 protein [4],downregulate expressions of Oct1 protein
same,Expressions of Oct2 protein,Oct2 protein [5],upregulate expressions of Oct2 protein
same,Expressions of renal Mate1 protein in treated rats,Mate1,unaltered
"C[C@H](CCC(=O)O)[C@H]1CC[C@H]2[C@@H]3CC[C@@H]4C[C@H](O)CC[C@]4(C)[C@H]3C[C@H](O)[C@]12C [DCA, Eeoxycholic acid]","Expressions of OCT2 protein, 5 bile salts tested",OCT2 protein [1],only CDCA remarkably induces
"C[C@H](CCC(=O)NCC(=O)O)[C@H]1CC[C@H]2[C@@H]3[C@H](O)C[C@@H]4C[C@H](O)CC[C@]4(C)[C@H]3C[C@H](O)[C@]12C [GCA, Glycocholic acid]","Expressions of OCT2 protein, 5 bile salts tested",OCT2 protein [1],only CDCA remarkably induces
CC(C)c1onc(-c2c(Cl)cccc2Cl)c1COc1ccc(/C=C/c2cccc(C(=O)O)c2)c(Cl)c1 [GW4064],Expressions of OCT2 protein by FXR agonists,OCT2 protein [1],induce expressions of OCT2 protein
same,Expressions of OCT2 protein by FXR agonists,OCT2 protein [2],increase expressions of OCT2 protein
same,Expressions of OCT1 protein,OCT1 protein [3]; GW4064,also downregulates
same,Expressions of Oct1 protein,Oct1 protein [4],downregulate expressions of Oct1 protein
same,Expressions of Oct2 protein,Oct2 protein [5],upregulate expressions of Oct2 protein
"C[C@H](CCC(=O)O)[C@H]1CC[C@H]2[C@@H]3C[C@H](O)[C@@H]4C[C@H](O)CC[C@]4(C)[C@H]3CC[C@]12C [HDCA, Hyodeoxycholic acid]","Expressions of OCT2 protein, 5 bile salts tested",OCT2 protein [1],only CDCA remarkably induces
"C[C@H](CCC(=O)NCC(=O)O)[C@H]1CC[C@H]2[C@@H]3[C@@H](O)[C@@H](O)[C@@H]4C[C@H](O)CC[C@]4(C)[C@H]3CC[C@]12C [MCA, glycine-β-muricholic acid]","Effect on induction of OCT2 protein by bilirubin, CDCA and GW4064",OCT2 protein [1]; MCA 100 μmol/L,remarkably attenuated
same,"Effect on increase of OCT2 protein by CDCA, bilirubin and GW4064",OCT2 protein [2]; MCA 100 μmol/L,reversed
same,"Effect on decreases in OCT1 by CDCA, bilirubin and GW4064",OCT1 protein [3]; MCA,remarkably reversed
same,"Effect on downregulation of Oct1 protein by CDCA, bilirubin and GW4064",Oct1 protein [4]; MCA,remarkably attenuated
same,"Effect on upregulation of Oct2 protein by CDCA, bilirubin and GW4064",Oct2 protein [5]; MCA,remarkably attenuated
same,Expressions of FGF19 mRNA,FXR [6]; MCA,slight inhibits
same,Expressions of SHP mRNA,FXR [6]; MCA,significantly downregulates
C=CC1=C(C)/C(=C/c2[nH]c(Cc3[nH]c(/C=C4\NC(=O)C(C)=C4C=C)c(C)c3CCC(=O)O)c(CCC(=O)O)c2C)NC1=O [bilirubin],Expressions of OCT2 protein by FXR agonists,OCT2 protein [2],increase expressions of OCT2 protein
same,Concentration-dependent effect on expressions of OCT1 protein,OCT1 protein [3],concentration-dependently downregulate
same,Expressions of Oct1 protein,Oct1 protein [4],downregulate expressions of Oct1 protein
same,Expressions of Oct2 protein,Oct2 protein [5],upregulate expressions of Oct2 protein
same,Expressions of SHP and FGF19 mRNA,FXR [6],significantly upregulate
same,Expressions of FXR protein,FXR protein,can induce
C[C@]12C[C@H](O)[C@H]3[C@@H](CCC4=CC(=O)CC[C@@]43C)[C@@H]1CC[C@@H]2C(=O)CO [corticosterone],Intestinal absorption (Peff) of metformin with inhibitor,Oct2/3 [7]; corticosterone 4 μmol/L with metformin 50 μg/mL,60 % of control rats
same,Effect on Peff values of thiamine,Oct2/3 [7]; corticosterone 4 μmol/L with thiamine 20 μg/mL,significantly decrease
same,In vivo hepatic uptake clearance of metformin with corticosterone,Oct2/3 [8],50 % of CON rats
NCCc1ccc(O)c(O)c1 [dopamine],"inhibition at 1.5 min, 20 μmol/L",Oct1; primary hepatocytes from BDL rats,25.2%
same,"inhibition at 1.5 min, 20 μmol/L",Oct1; primary hepatocytes from Sham rats,58.7%
C[C@]12CC[C@@H]3c4ccc(O)cc4CC[C@H]3[C@@H]1CC[C@@H]2O [estradiol],Effect on Peff of metformin,Oct3,does not affect
CN(C)C(=N)N=C(N)N [metformin],"Uptake of metformin in renal slice, BDL vs Sham",rat kidney slices,significantly increases
same,V1,"BDL rat, same value as Sham",102.99 mL
same,V1,"Sham rat, 250 g, estimated from original data",102.99 ^j mL
same,AUC,[9]; CDCA-treated rats (Table S5),906.85 ± 52.16 µg·min/mL
same,Cmax,[9]; CDCA-treated rats (Table S5),4360 ± 380 ng/mL
same,AUC,[9]; [14],707.20 ± 30.01 µg·min/mL
same,Cmax,[9]; [14],3190 ± 120 ng/mL
CC[C@H](/C=C/[C@@H](C)[C@H]1CC[C@H]2[C@@H]3CC=C4C[C@@H](O)CC[C@]4(C)[C@H]3CC[C@]12C)C(C)C [stigmasterol],Effect on upregulation of SHP and FGF19 mRNA by CDCA,FXR [10]; co-administration of stigmasterol with CDCA,significantly reversed
same,"mRNA expressions of SHP and FGF19, stigmasterol alone",FXR [10]; stigmasterol 100 μmol/L,little affects
same,Effect on the increased expressions of intestinal Oct2 protein by CDCA,Oct2,attenuates
same,Effect on CDCA-induced increase in levels of blood thiamine,[11],attenuated
Cc1ncc(C[n+]2csc(CCO)c2C)c(N)n1 [thiamine],Peff values of thiamine in BDL rats vs Sham,[12],significantly decrease
same,"Urinary excreted amount of thiamine during 6 h, BDL relative to Sham",[13],187 % of Sham rats

# Reference: paper PMC9939304 (Acta Pharmaceutica Sinica. B, 2022)
